Results reported in publication PMC11936910, “Population pharmacokinetics of polymyxin B in critically ill patients with carbapenem-resistant organisms infections: insights from steady-state trough and peak plasma concentration” (Frontiers in Pharmacology, 2025).
Where two headings read alike, the source gives them in different places. Bridge positions count the residues as written; N and C are the ends. Square brackets hold non-standard residues; d marks the D form. Peptide text beside a SMILES is read from it. * marks the point of attachment. X1 = CC[C@H](C)CCCCC(=O)*; Dab = NCC[C@H](N)C(=O)O

Key:
[1] = Steady-state trough and peak plasma concentrations of PMB (UPLC-MS/MS) and AUCss,24h estimation; format: in vivo, critically ill patients; conditions: for Cmax / AUC(0-t): human, plasma, iv; for Cmax: sample immediately after infusion, UPLC-MS/MS, read-out: Cpeak, ss; for AUC(0-t): two-point method (Ctrough,ss and Cpeak,ss, first-order elimination equation), mean ± SD, SD, read-out: Equation-based AUCss,24h
Method: A single-center prospective study was conducted in the intensive care unit (ICU) of the First Affiliated Hospital of Army Medical University from August 2021 to July 2024. Inclusion criteria: (1) patients aged ≥18 years; (2) patients receiving intravenous PMB for CRO infections confirmed by pathogen testing; (3) patients receiving at least four consecutive doses of intravenous PMB, or a loading dose followed by at least three consecutive doses. Exclusion criteria: (1) patients with missing clinical data; (2) patients hospitalized for fewer than 7 days; (3) patients receiving any form of renal replacement therapy during PMB treatment; (4) pregnant women. The research protocol was approved by the Ethics Committee of our hospital (No. (A) KY2021064).
After at least 48 h of treatment, two blood samples were collected: one immediately before the infusion and the other immediately after. The exact times of blood sampling and infusion were recorded for each patient. Plasma was separated by low-temperature, low-speed centrifugation and stored at −70°C until analysis.
PMB concentrations were analyzed using a validated ultra-performance liquid chromatography-tandem mass spectrometry (UPLC-MS/MS) method. Briefly, using polymyxin E2 as the internal standard, the assay was linear over 0.2–20.0 mg·L^-1 and 0.05–5 mg·L^-1 (r > 0.995) for PMB1 and PMB2 respectively. […] PMB concentration was calculated as follows: total concentration of PMB = [PMB1 concentration/PMB1 molecular + PMB2 concentration/PMB2 molecular]*total PMB molecular ([Liu et al., 2023]).
Data analysis was performed SPSS (version 26.0, IBM, United States) and GraphPad Prism (version 8.3.0, CA, United States). Variables with a normal distribution were expressed as mean ± standard deviation (SD), while non-normally distributed variables were reported as median (interquartile range, IQR). Categorical data were presented as percentages (%). Comparisons between two groups were conducted using the Mann-Whitney U test for non-normally distributed data and the independent t-test for normally distributed data. The estimation of AUCss,24h used the two-point method was presented in Equations 3–5 ([Liu et al., 2023]), while the estimation of AUCss,24h based on the PopPK model was obtained by dividing the total 24-hour drug dose by the individual clearance. Bland-Altman analysis was performed to evaluate the consistency of AUCss,24h estimates obtained by the two methods. AUCss,24h values were categorized as “within the therapeutic window” (50–100 mg·h·L^-1), and McNemar’s test and Kappa test were applied to assess the consistency of AUCss,24h classifications. ke=lnCpeak,ss−lnCtrough,ss/τ−Infusion (3) Csoi′ =Cpeak,ss/e^−ke⋅Infusion (4) AUCss,24h=Csoi^′−Ctrough,ss/ke×n (5) Infusion time; τ: dosing interval; Csoi' is the exploratory concentration at the start of dosing based on the one-compartment linear elimination pharmacokinetic assumption; ke: elimination rate constant; n is the number of doses within 24 h.

CRO strains = assay: MICs of PMB against CRO strains; format: cell-based, carbapenem-resistant organisms
[2] = cited from earlier work
Description: The association between PMB pharmacokinetics and CrCL is still debated.

[3] = Population pharmacokinetic (PopPK) model of PMB, NONMEM, one-compartment; format: in vivo, critically ill patients
Description: The PopPK model was developed using nonlinear mixed-effects modeling software: NONMEM (version 7.5.1, ICON plc, United States), Pirana (version 23.1.2, Certara L.P., United States), and PsN (version 5.3.0, https://uupharmacometrics.github.io/PsN/), with the first-order conditional estimation method including interaction (FOCE-I). The base model was selected based on goodness-of-fit (GOF) diagnostic plots, relative standard error (RSE) of parameters, and the objective function value (OFV). Spearman correlation was used to evaluate the relationships between covariates and individual empirical Bayesian estimates (EBEs) of PK parameters before covariate selection. A decrease in OFV >3.84 (P < 0.05, χ^2, df = 1) for forward addition and an increase >6.63 (P < 0.01, χ^2, df = 1) for backward elimination were the criteria for covariate inclusion. GOF plots were used to assess the model. To assess the stability of the final model and the precision of the PK parameters, a bootstrap method with 1,000 resampling iterations was performed. The final model was then subjected to 1,000 simulations for visual predictive checks (VPC) to evaluate the model’s predictive ability and accuracy. The accuracy and predictive performance of the model were further assessed using normalized prediction distribution errors (NPDE) plots. Statistical validation of the model was conducted using the t-test, Fisher’s test, Shapiro-Wilk test, and the Global test.
The patients were divided into a modeling group and a validation group based on the chronological order of enrollment and in accordance with the inclusion and exclusion criteria. External validation of the final model was performed using the validation group data. The mean prediction error (MPE), mean absolute prediction error (MAPE) (Equations 1, 2), F20 (20% of the absolute value of the prediction error), and F30 were calculated by comparing the predicted values with the observed values. Model performance was considered acceptable if MPE% ≤ ±20%, MAPE% ≤ 30%, F20 ≥ 35%, and F30 ≥ 50% ([Mao et al., 2018]). MPE%=1/N∑i=1Npredi−obsi/obsi×100 (1) MAPE%=1/N∑i=1Npredi−obsi/obsi×100 (2) predi denotes the i-th predicted value, and obsi its corresponding observed value.
A one-compartment model with first-order elimination best fit the population data of PMB in critically ill patients. Inter-individual variability was described using an exponential random effects model, while residual variability was described using both proportional and additive error models.

[4] = cited from earlier work; remark: listed apart in the source
Description: In contrast, the lower CL observed in previous studies by Li et al. (1.18 L·h^-1) and Yu et al. (1.59 L·h^-1) may reflect differences in renal function and patient characteristics. Our study reported a value of 18 L, which ...

[5] = bootstrap median, 1,000 resampling iterations
[6] = CRO-infected patients, covariate TBW, ref Manchandani et al., 2018
[7] = CRO-infected patients, ref Kubin et al., 2018
[8] = Critically ill patients, covariate CrCL, ref Yu et al., 2020
[9] = Cystic fibrosis patients, covariate TBW, ref Crass et al., 2021
[10] = Kidney transplant patients, covariate CrCL, ref Li et al., 2021

CC[C@H](C)CCCCC(=O)N[C@@H](CCN)C(=O)N[C@H](C(=O)N[C@@H](CCN)C(=O)N[C@H]1CCNC(=O)[C@H]([C@@H](C)O)NC(=O)[C@H](CCN)NC(=O)[C@H](CCN)NC(=O)[C@H](CC(C)C)NC(=O)[C@@H](Cc2ccccc2)NC(=O)[C@H](CCN)NC1=O)[C@@H](C)O [PMB, polymyxin B] (X1-[Dab]T[Dab][Dab][Dab][dF]L[Dab][Dab]T; lactam 4-C)
AUCss,24h within the range of 50–100, share of values ([1]; estimated by the PPK model, 55/106 values (modeling and validation group)): 51.89%
AUCss,24h within the range of 50–100, share of values ([1]; estimated using the two-point method, 49/106 values): 46.23%
Cmax ([1]; modeling set (n = 80), median (IQR)): 5730 ng/mL
AUC(0-t) ([1]; modeling set): 102000 ± 57900 ng·h/mL
Cmax ([1]; validation set (n = 15), median (IQR)): 4340 ng/mL
AUC(0-t) ([1]; validation set): 90500 ± 43400 ng·h/mL
Model-based AUCss,24h ([1]; modeling set, total 24-hour dose divided by individual clearance from PopPK model, median (IQR)): 74.07 (55.81–94.07) mg·h/L
Share with MIC of PMB 16 mg·L^-1 (CRO strains; modeling group, 3/80): 3.75%
Share with MIC of PMB 2 mg L^-1 (CRO strains; modeling group, 8/80): 10%
Share with MIC of PMB 1 mg·L^-1 (CRO strains; modeling group, 11/80): 13.75%
Share with MIC of PMB 2 mg·L^-1 (CRO strains; validation group, 2/15): 13.33%
Share with MIC of PMB 1 mg·L^-1 (CRO strains; validation group, 4/15): 26.67%
Share with MIC of PMB ≤0.5 mg·L^-1 (CRO strains; validation group, 9/15): 60%
Urinary recovery ([2]; 17 patients, ref Sandri et al., 2013b): 0.98% to 17.40
Urinary recovery rate ([2]; four patients, ref Yu et al., 2020): 23.56%
CL [3, 5]: 2.02 L/h
V [3, 5]: 17.98 L
V ([3]; final model estimate, modeling group n = 80): 18 L
CL ([3]; final model estimate, modeling group n = 80, 184 samples): 2.03 L/h
CL [4, 6]: 2.50 L/h
Vd [4, 6]: 34.30 L
CL [4, 7]: 2.37 L/h
Vd [4, 7]: 34.40 L
CL [4, 8]: 1.59 L/h
Vd [4, 8]: 20.50 L
CL [4, 9]: 2.09 L/h
Vd [4, 9]: 12.70 L
CL [4, 10]: 1.18 L/h
Vd [4, 10]: 12.90 L
